For experiment [1], the target named is T1, human ADRA2C receptor (Homo sapiens (Human), UniProt P18825). Nature of the experiment: In vitro activity assay to determine the inhibition of recombinant ADRA2C (CHO-K1 cells, aequorin bioluminescence). The class given is cell-based. The conditions noted are these: inhibition of noradrenaline-induced bioluminescence signal; some mean values from multiple determinations; read-out: ARα2C IC50. A digest of the protocol:
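IC50 is the concentration halving the agonist (noradrenaline)-evoked rise in aequorin luminescence, fitted by 4-parameter Hill function. Read in stable Gαq/aequorin CHO-K1 cells expressing recombinant human ADRA2C.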

The target of experiment [2] is T1, human ADRA2C receptor. Nature of the experiment: In vitro radioligand binding studies ([3H] rauwolscine competition) at the human adrenoreceptor ADRA2C. The settings on record: for IC50: 0.5 nM [3H] rauwolscine, homogenates of CHO-K1 cells expressing human ADRA2C, 1 h at 4° C., read-out: hARα2C IC50; for Ki: calculated from IC50 and Kd with the Cheng Prusoff equation, read-out: hARα2C Ki. Here is the method: B-1 In Vitro Radioligand Binding Studies for Determination of the Dissociation Constants K1 at the Human Adrenoreceptor ADRA2C (Eurofins Panlabs Discovery Services, Taiwan, Ltd)
A competition assay based on [^3H] rauwolscine as radioliganden was used to determine the binding affinity of the test substances at the human ADRA2C receptor.
To configure the competition assay, the equilibrium dissociation constant Kd of the radioligand [^3H] rauwolscine was determined in a saturation experiment. To this end, homogenates of CHO-K1 cells recombinantly expressing the human ADRA2C receptor were incubated with increasing concentrations of the radiotracers for 1 h at 4° C. in binding buffer (50 mM Tris-HCl, 1 mM EDTA, pH 7.4). Unspecific binding was determined by addition of an excess of the not radioactively labelled ligand prazosin (10 μM). The radioactivity was determined in a scintiation counter.
The competition experiments were carried out in the presence of 0.5 nM [^3H] rauwolscine and increasing concentrations of the test substances to be characterized under the conditions described above.
From the IC50 value measured in the competition experiment and the […] from the saturation experiment, the equilibrium constant Ki of the inhibitor, which describes the affinity of the test substances to the receptor, was calculated using the Cheng Prusoff equation [Cheng Y, Prusoff WH. Relationship between the inhibition constant (Ki) and the concentration of inhibitor which causes 50 percent inhibition (I50) of an enzymatic reaction. […] PMID 4202581 PMID: 4202581].

Experiment [3] relates to anaesthetized, spontaneously breathing pigs. Kind of experiment: Pig model of obstructive sleep apnea (OSA): upper airway collapsibility under negative pressure. The conditions noted are these: for Percent pigs without collaps −50 cm H2O / Percent pigs without collaps −100 cm H2O / Percent pigs without collaps −150 cm H2O: 0.01 mg/kg intraduodenal at 0 min; for upper airway collapsibility / time points at which upper airway collapsibility was inhibited at all negative pressures of −50, −100 and −150 cm H2O in all pigs: 0.01 mg/kg intraduodenal, alone. The class given is in vivo, German Landrace pigs.
Text: B-3 Animal Model of Obstructive Sleep Apnoea in the Pig
Using negative pressure, it is possible to induce collapse and thus obstruction of the upper respiratory tract in anesthetized, spontaneously breathing pigs [Wirth et al., Sleep 36, 699-708 (2013)].
German Landrace pigs are used for the model. The pigs are anesthetized and tracheotomized. One cannula each is inserted into the rostral and the caudal part of the trachea. Using a T connector, the rostral cannula is connected on the one hand to a device generating negative pressures and on the other hand to the caudal cannula. Using a T connector, the caudal cannula is connected to the rostral cannula and to a tube which allows spontaneous breathing circumventing the upper respiratory tract. By appropriate closing and opening of the tubes it is thus possible for the pig to change from normal nasal breathing to breathing via the caudal cannula during the time when the upper respiratory tract is isolated and connected to the device for generating negative pressures. The muscle activity of the musculus genioglossus is recorded by electromyogram (EMG).
(§1) At certain points in time, the collapsibility of the upper respiratory tract is tested by having the pig breathe via the caudal cannula and applying negative pressures of −50, −100 and −150 cm water head (cmH2O) to the upper respiratory tract. This causes the upper respiratory tract to collapse, which manifests itself in an interruption of the airflow and a pressure drop in the tube system. This test is conducted prior to the administration of the test substance and at certain intervals after the administration of the test substance. An appropriately effective test substance can prevent this collapse of the respiratory tract in the inspiratory phase.
Administration of the test substance can be intranasal, intravenous, subcutaneous, intraperitoneal, intraduodenal or intragastral.
The therapeutic potential of the combination of an α2-Adrenoceptor subtype C (alpha-2C) antagonists with a TASK⅓ channel blocker according to the present invention in sleep apnea can be assessed preclinically in a pig model of obstructive sleep apnea (OSA).
Using negative pressure, it is possible to induce collapse and thus obstruction of the upper respiratory tract in anaesthetized, spontaneously breathing pigs (Wirth K. J. et al., Sleep 36(5) (2013) pp. 699-708).
German Landrace pigs are used for the model. The pigs are anaesthetized and tracheotomized. Two tracheal cannulas are inserted into the trachea, one into the rostral part and the other into the caudal part of the trachea. Using a connection piece, the rostral cannula is connected to a tube to the negative pressure device and to the distal tracheal cannula. The distal tracheal cannula is additionally connected to a tube with an open end to atmosphere via a connection piece that served for free tracheal breathing, circumventing the upper airway. By appropriate opening and clamping of those tubes breathing can be switched from nasal breathing to breathing through the caudal tracheal cannula, circumventing the upper airway, and the (isolated) upper airway can be connected to the negative pressure device, causing airflow in the inspiratory direction.
as §1, with “(cm H2O)” for “(cmH2O)”

T1 sequence (P18825 whole entry): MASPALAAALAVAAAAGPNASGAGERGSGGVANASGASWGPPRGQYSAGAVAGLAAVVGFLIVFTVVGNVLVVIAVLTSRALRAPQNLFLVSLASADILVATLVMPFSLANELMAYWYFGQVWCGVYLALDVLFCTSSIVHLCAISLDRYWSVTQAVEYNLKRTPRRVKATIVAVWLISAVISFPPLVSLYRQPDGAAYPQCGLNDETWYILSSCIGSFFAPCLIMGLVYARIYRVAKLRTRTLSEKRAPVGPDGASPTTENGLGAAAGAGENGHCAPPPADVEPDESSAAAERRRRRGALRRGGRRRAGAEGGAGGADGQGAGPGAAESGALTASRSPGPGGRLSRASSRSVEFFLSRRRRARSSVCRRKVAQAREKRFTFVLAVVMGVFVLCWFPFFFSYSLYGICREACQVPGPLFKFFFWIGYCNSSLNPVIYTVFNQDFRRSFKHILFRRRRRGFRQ

`COCC1CCCN(C2CCN(c3ncc(C(=O)NCc4ncc(F)cc4F)s3)CC2)C1` (single isomer, unassigned) [Example 100, ent-N-[(3,5-Difluoropyridin-2-yl)methyl]-2-[3-(methoxymethyl)[1,4′-bipiperidin]-1′-yl]-1,3-thiazole-5-carboxamide]: the 50% inhibitory concentration (IC50) (commonly the point on the concentration scale where inhibition reaches its midpoint) is 0.0029 µM on human ADRA2C receptor [1] and 0.005 µM on human ADRA2C receptor [2]. Besides, on human ADRA2C receptor [2], the Ki (as a rule, the equilibrium dissociation constant of an inhibitor or competing ligand from its target) is 0.002 µM.
With `C[C@@H]1CCCN(C2CCN(c3ncc(C(=O)NCc4ncc(F)cc4F)s3)CC2)C1` [Example 1, N-[(3,5-Difluoropyridin-2-yl)methyl]-2-[(3R)-3-methyl[1,4′-bipiperidin]-1′-yl]-1,3-thiazole-5-carboxamide], the IC50 on human ADRA2C receptor [1] came out at 0.121 µM. For the same compound, at human ADRA2C receptor [2], the IC50 amounted to 0.054 µM and the Ki is 0.024 µM.
Take `C[C@@H]1CCCN(C2CCN(c3ncc(C(=O)NCc4ncc(F)cc4F)s3)CC2)C1` [N-[(3,5-difluoropyridin-2-yl)methyl]-2-[(3R)-3-methyl[1,4′-bipiperidin]-1′-yl]-1,3-thiazole-5-carboxamide]: the “Percent pigs without collaps −50 cm H2O” value in experiment [3] (time 0 min) is on record as 0%; in experiment [3] (time 30 min), 0%; in experiment [3] (time 60 min), 0%; in experiment [3] (time 90 min), 33%; in experiment [3] (time 120 min) it was 100%; in experiment [3] (time 150 min), 100%. Besides, the “Percent pigs without collaps −50 cm H2O” value is 100% in experiment [3] (time 180 min); 67% in experiment [3] (time 210 min); 0% in experiment [3] (time 230 min); 0% in experiment [3] (second set, time 0 min); 0% in experiment [3] (second set, time 30 min); 50% in experiment [3] (second set, time 60 min). The “Percent pigs without collaps −50 cm H2O” value is 100% in experiment [3] (second set, time 90 min); 100% in experiment [3] (second set, time 120 min); 50% in experiment [3] (second set, time 150 min); 0% in experiment [3] (second set, time 180 min). Moreover, the “Percent pigs without collaps −100 cm H2O” value was found to be 0% in experiment [3] (time 0 min); 0% in experiment [3] (time 30 min); 0% in experiment [3] (time 60 min); 33% in experiment [3] (time 90 min); 100% in experiment [3] (time 120 min); 100% in experiment [3] (time 150 min). The “Percent pigs without collaps −100 cm H2O” value amounted to 100% in experiment [3] (time 180 min); 33% in experiment [3] (time 210 min); 0% in experiment [3] (time 230 min); 0% in experiment [3] (second set, time 0 min); 0% in experiment [3] (second set, time 30 min); 0% in experiment [3] (second set, time 60 min). The “Percent pigs without collaps −100 cm H2O” value came out at 50% in experiment [3] (second set, time 90 min); 100% in experiment [3] (second set, time 120 min); 0% in experiment [3] (second set, time 150 min); 0% in experiment [3] (second set, time 180 min). In addition, the “Percent pigs without collaps −150 cm H2O” value was found to be 0% in experiment [3] (time 0 min); 0% in experiment [3] (time 30 min); 0% in experiment [3] (time 60 min); 33% in experiment [3] (time 90 min); 67% in experiment [3] (time 120 min); 100% in experiment [3] (time 150 min). Moreover, the “Percent pigs without collaps −150 cm H2O” value in experiment [3] (time 180 min) is listed as 100%; in experiment [3] (time 210 min), 0%; in experiment [3] (time 230 min), 0%; in experiment [3] (second set, time 0 min), 0%; in experiment [3] (second set, time 30 min), 0%; in experiment [3] (second set, time 60 min), 0%. The “Percent pigs without collaps −150 cm H2O” value in experiment [3] (second set, time 90 min) is given as 50%; in experiment [3] (second set, time 120 min), 0%; in experiment [3] (second set, time 150 min) it was 0%; in experiment [3] (second set, time 180 min), 0%. Besides, the upper airway collapsibility entry in experiment [3] (230 min after administration, all pigs) was “induced at all negative pressures”; in experiment [3] (second set, 90 min after administration), “only inhibited at negative pressures of −50 cm head”; in experiment [3] (second set, 120 min after administration), “only inhibited at negative pressures of −50 and −100 cm head”; in experiment [3] (second set, 180 min after administration, all pigs), “induced at all negative pressures”. Also, the “time points at which upper airway collapsibility was inhibited at all negative pressures of −50, −100 and −150 cm H2O in all pigs” value in experiment [3] (first set) is “only at time point 150 and 180 min”; in experiment [3] (second set), “at no time point”.

Source of the values: patent publication US20240000767A1, “COMBINATION OF AN ALPHA2-ADRENOCEPTOR SUBTYPE C (ALPHA-2C) ANTAGONIST WITH A TASK1/3 CHANNEL BLOCKER FOR THE TREATMENT OF SLEEP APNEA” (Bayer Aktiengesellschaft, priority 2020, published 2024).
